Entries after “also recorded” stand apart in the source; their conditions may differ. Like-named read-outs stand apart in the source and are kept apart here.

The subject of experiment [1] is L. salmonis (preadult 2). Kind of experiment: In-vivo exposure of preadult salmon lice to 1 mg/L for 24 h. On the set-up: species or system Lepeophtheirus salmonis. The note with it: for Efficacy at 1.0 mg/L (%): preadult 2 parasites. Here is the method:
The exposure of preadult 2 parasites were conducted as described in [48]. The parasites originated from a salmon louse strain sensitive to all tested compounds [49]. The cultivation of salmon lice was conducted at the NIVA Marine Research Station Solbergstrand in the Oslofjord. Laboratory reared Atlantic salmon of were kept in 1 m^3 tanks supplied with running seawater, salinity 33–35 parts per thousand, temperature 7–9°C. Salmon lice egg strings were harvested from adult females and hatched according to [50]. The preadult salmon lice were harvested on the day of exposure. Fish were anaesthetized with 100 mg/L metacaine for 2 min. The parasites were gently removed from the fish with forceps, placed directly in glass containers filled with 1000 mL filtered seawater and exposed to the compounds within 4 h.
Each group of parasites was exposed to 1 mg/L of the test substance for 24 h. The compounds were dissolved in DMSO and an emulsifier was added immediately before dilution with water. The bottles were finally incubated at 10°C according to [49], with continuous air supply, for 24 h.
After the incubation period was over, the solution with parasites was poured out through a funnel containing a filter. Parasites remaining attached to the bottle wall were classified as alive. Immobilized parasites were collected from the filter. […] All parasites in the two groups were counted and classified according to sex and developmental stage.

Experiment [2] concerns the target Lsa-nAChR2 (α3β1β2) (Lepeophtheirus salmonis, UniProt A0A7S5PZ03+A0A7S5PZ05+A0A7S5Q7H3). Description: cell-based. To be noted: for type of effect on the receptor (agonist / partial-agonist / super-agonist / no effect): dose-response; for agonist screening (pre- and co-application protocol): 1 μM; for Max peak (% Ach): maximal peak current compared to ACh 100 μM. Format: cell-based. The method, then:
(§1) Capped cRNAs were synthesized (T7 mMessage mMachine kit, Ambion, Austin, TX, USA) from the linearized vectors containing the different subunits according to the manufacturer’s protocol. cRNA samples were stored at -80°C until use. Oocytes were ordered from Ecocyte (Germany). Oocytes were microinjected using a Roboinject automatic injection system (Multi Channel Systems, Reutlingen, Germany) with 15–25 nl of cRNA solution (30–300 ng/μl per subunit) and then incubated at 18°C in sterile filtered Barth solution containing: NaCl (88 mM), KCl (1 mM), NaHCO3 (2.4 mM), HEPES (10 mM, pH 7.5), MgSO4·7H2O (0.82 mM), Ca(NO3)2·4H2O (0.33 mM), CaCl2·6H2O (0.41 mM), at pH 7.4, and supplemented with 20 μg/ml of kanamycin, 100 U/ml benzylpenicillin and 100 μg/ml streptomycin. Recordings were made 3–5 days post-cRNA injection.
(§2) Oocytes were impaled with two electrodes filled with 3 M KCl, and their membrane potentials were maintained at -80 mV throughout the experiment. Currents evoked by ACh or drugs were recorded using an automated process equipped with standard two-electrode voltage-clamp configuration (HiClamp, MultiChannel Systems). The principle of this system differs from standard electrophysiology because, instead of applying the compound in the perfusion, the oocyte is moved into a well from a 96-well microtiter plate containing the desired solution. Data were captured at 100 Hz, filtered at 10 Hz, and analyzed using proprietary data acquisition and analysis software running under Matlab (Mathworks Inc., Natick, MA, USA). Additional analyses were performed in Excel (Microsoft, Redmond, WA, USA). […] Concentration-activation curves were fitted with the equation: Y=100/1+10^H(logEC50−X) (1) where Y is the normalized response, logEC50 is the logarithm of the concentration of agonist eliciting half-maximal current amplitude, X is the log of dose or concentration, and H is the slope factor or Hill slope. Individual curves were standardized to the initial ACh (100 μM) application amplitude and subsequently averaged. EC50 values were determined from the mean of at least 3 or more cells.
(§3) Dose-response curves were obtained by sequential applications for 10s of increasing concentrations of ACh or drugs to oocytes expressing Lsa-nAChR1 or Lsa-nAChR2. A total time of 90 s time was allowed between applications for the channel to recover from any desensitization. To test the antagonistic effect of DHbE (Fig 5) and for the screening protocol (Fig 6), cells that evoked a significant current with ACh were exposed to the test compounds at 10 μM respectively 1 μM using a pre-application of 45 s and co-application of 10 s with ACh (1 μM).

The target in experiment [3] is Lsa-nAChR1 (α1α2β1β2) (Lepeophtheirus salmonis, UniProt A0A7S5PZ05+A0A7S5Q3W4+A0A7S5Q7H3+A0A7S5U9A3). Kind of experiment: cell-based. It is filed as cell-based. To be noted: for agonist screening (pre- and co-application protocol): 1 μM; for type of effect on the receptor (agonist / partial-agonist / no effect): dose-response; for Emax: read-out: Max peak (% Ach); for inward current on average: 10 μM sazetidine A. Here is the method:
as §1, §2, §3

[4] abbreviates: Xenopus oocytes, 1:1 (α:β) ratio.
Where [5] appears, read: EC50 (nM), Xenopus oocytes, 1:1 (α:β) ratio.
The mark [6] stands for this setting: calculated EC50, text values in μM, 1:1 (α:β) ratio.

Chain of Lsa-nAChR1 (α1α2β1β2) (A0A7S5PZ05 entry or part of it): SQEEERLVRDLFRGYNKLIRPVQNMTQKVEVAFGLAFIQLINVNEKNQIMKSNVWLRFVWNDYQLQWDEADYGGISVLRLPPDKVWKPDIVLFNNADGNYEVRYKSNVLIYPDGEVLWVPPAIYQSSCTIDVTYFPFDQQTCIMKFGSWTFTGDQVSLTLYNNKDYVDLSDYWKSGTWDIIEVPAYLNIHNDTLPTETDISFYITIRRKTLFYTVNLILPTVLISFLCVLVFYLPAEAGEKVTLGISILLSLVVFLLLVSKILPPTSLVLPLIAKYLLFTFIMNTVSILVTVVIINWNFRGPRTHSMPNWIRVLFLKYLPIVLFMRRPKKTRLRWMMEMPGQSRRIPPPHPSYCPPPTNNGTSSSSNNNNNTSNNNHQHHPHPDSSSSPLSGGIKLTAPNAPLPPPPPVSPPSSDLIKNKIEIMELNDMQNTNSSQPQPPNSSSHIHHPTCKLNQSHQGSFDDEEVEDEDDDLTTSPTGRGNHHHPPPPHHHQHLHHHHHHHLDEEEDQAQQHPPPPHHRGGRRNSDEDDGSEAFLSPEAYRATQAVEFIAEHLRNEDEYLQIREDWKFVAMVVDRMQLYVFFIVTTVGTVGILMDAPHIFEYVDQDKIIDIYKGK
Chain of Lsa-nAChR1 (α1α2β1β2) (A0A7S5Q3W4 entry or part of it): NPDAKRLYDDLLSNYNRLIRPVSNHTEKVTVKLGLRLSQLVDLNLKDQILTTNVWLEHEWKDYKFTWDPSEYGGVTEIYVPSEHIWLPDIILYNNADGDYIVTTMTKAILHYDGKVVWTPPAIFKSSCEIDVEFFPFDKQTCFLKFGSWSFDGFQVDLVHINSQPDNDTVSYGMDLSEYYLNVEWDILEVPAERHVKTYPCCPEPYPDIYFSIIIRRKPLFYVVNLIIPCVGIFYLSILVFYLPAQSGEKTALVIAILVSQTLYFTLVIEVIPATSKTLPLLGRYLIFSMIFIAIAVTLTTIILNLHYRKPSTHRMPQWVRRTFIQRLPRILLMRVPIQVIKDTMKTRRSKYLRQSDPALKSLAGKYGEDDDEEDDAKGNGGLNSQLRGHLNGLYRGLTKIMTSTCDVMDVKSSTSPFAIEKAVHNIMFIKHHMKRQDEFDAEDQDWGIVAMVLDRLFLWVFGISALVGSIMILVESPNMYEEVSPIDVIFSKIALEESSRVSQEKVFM
Chain of Lsa-nAChR1 (α1α2β1β2) (A0A7S5U9A3 entry or part of it): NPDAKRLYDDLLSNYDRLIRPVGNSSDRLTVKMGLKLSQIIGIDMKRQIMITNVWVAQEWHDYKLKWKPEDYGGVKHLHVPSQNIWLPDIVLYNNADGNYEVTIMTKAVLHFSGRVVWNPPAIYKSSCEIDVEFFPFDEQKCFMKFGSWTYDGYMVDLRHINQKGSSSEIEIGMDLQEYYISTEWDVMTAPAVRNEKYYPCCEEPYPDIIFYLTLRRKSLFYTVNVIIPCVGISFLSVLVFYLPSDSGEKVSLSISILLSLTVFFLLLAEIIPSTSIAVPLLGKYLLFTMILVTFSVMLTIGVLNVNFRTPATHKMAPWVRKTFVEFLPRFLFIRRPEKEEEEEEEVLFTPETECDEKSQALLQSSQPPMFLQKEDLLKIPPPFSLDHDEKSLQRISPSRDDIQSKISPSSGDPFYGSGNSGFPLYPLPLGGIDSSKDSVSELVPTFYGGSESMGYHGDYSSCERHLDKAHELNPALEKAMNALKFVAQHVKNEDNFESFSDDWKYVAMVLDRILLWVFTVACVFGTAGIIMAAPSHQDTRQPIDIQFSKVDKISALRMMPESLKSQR
Chain of Lsa-nAChR1 (α1α2β1β2) (A0A7S5Q7H3 entry or part of it): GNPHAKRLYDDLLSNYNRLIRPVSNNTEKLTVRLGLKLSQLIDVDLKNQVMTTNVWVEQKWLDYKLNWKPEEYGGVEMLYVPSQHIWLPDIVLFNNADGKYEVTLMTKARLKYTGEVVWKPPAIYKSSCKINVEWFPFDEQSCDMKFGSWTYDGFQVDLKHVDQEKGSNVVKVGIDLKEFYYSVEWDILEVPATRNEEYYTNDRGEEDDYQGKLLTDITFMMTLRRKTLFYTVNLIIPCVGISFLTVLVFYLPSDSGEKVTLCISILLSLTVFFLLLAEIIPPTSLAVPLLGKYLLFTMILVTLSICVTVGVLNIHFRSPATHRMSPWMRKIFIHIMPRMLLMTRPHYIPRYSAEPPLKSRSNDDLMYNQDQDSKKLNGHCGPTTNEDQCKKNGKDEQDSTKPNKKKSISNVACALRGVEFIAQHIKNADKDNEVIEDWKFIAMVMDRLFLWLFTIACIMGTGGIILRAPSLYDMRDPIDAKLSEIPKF

As for `C/C(=N\C#N)N(C)Cc1ccc(Cl)nc1` [Acetamiprid], in experiment [1], the “lethal effect / mortality of preadult parasites” value (“lethal effect / mortality” below) is reported as “significant lethal effect; also recorded: high mortality rates” and the “Efficacy at 1.0 mg/L (%)” value is listed as 89.5%. The “EC50 (nM)” value in experiment [2] (setting [4]) is “No effect”. In experiment [2] (1:1 (α:β) ratio), the “type of effect on the receptor (agonist / partial-agonist / super-agonist / no effect)” value was “did not affect; also recorded: did not demonstrate any ex-vivo effect”. For the same compound, in experiment [3], the 50% effective concentration (EC50) – broadly, the concentration giving half of the maximal effect – was 10300 nM and the Emax turned out to be 34.1%. Further, in experiment [3] (1:1 (α:β) ratio), the “agonist screening (pre- and co-application protocol)” value (“agonist screening” for short) is “agonists”; the “type of effect on the receptor (agonist / partial-agonist / no effect)” value (“type … (agonist / partial-agonist / no effect)” below) is listed as “partial-agonist”.
Take `COP(=O)(OC)SCn1c(=O)oc2cc(Cl)cnc21` [Azamethiphos]: the “EC50 (nM)” value in experiment [2] (setting [4]) and in experiment [3] (setting [4]) was “No effect” each time.
As for `CN/C(=N\[N+](=O)[O-])NCc1cnc(Cl)s1` [Clothianidin], the “Efficacy at 1.0 mg/L (%)” value in experiment [1] came out at 54.3%. For the same compound, in experiment [2], the response was half-maximal at 81 nM (EC50). Besides, in experiment [2] (1:1 (α:β) ratio), the “agonist screening” value is “agonists”; the “type of effect on the receptor (agonist / partial-agonist / super-agonist / no effect)” value is “partial-agonists”; the “Max peak (% Ach)” value is listed as 75.4%. In experiment [3], the EC50 was found to be 37 nM and the Emax was found to be 41.9%. Also, in experiment [3] (1:1 (α:β) ratio), the “agonist screening” value is given as “agonists”; the “type … (agonist / partial-agonist / no effect)” value is recorded as “partial-agonists”.
As for `CC1(C)C(C=C(Cl)Cl)C1C(=O)OC(C#N)c1cccc(Oc2ccccc2)c1` (stereo not drawn) [Cypermethrin], the “EC50 (nM)” value in experiment [2] (setting [4]) and in experiment [3] (setting [4]) was “No effect” in each case.
`CC1(C)[C@H](C(=O)O[C@H](C#N)c2cccc(Oc3ccccc3)c2)[C@@H]1C=C(Br)Br` [Deltamethrin]: the “EC50 (nM)” value in experiment [2] (setting [4]) and in experiment [3] (setting [4]) was “No effect” each time.
For `CN/C(=N/CC1CCOC1)N[N+](=O)[O-]` (stereo not drawn) [Dinotefuran], in experiment [1], the “Efficacy at 1.0 mg/L (%)” value came to 100.0%. In experiment [2] (1:1 (α:β) ratio), the “agonist screening” value is on record as “agonists”; the “type of effect on the receptor (agonist / partial-agonist / super-agonist / no effect)” value is given as “super-agonist”; the “Max peak (% Ach)” value came out at 110.2%. Moreover, in experiment [2] (setting [5]), the EC50 was found to be 757 nM. Moreover, in experiment [3] (1:1 (α:β) ratio), the “agonist screening” value is listed as “agonists”; the “type … (agonist / partial-agonist / no effect)” value is recorded as “partial-agonists”. For the same compound, the EC50 in experiment [3] (setting [5]) turned out to be 220 nM. Also, in experiment [3], the Emax was 69.8%.
For the compound `O=[N+]([O-])NC1=NCCN1Cc1ccc(Cl)nc1` [Imidacloprid], in experiment [1], the “lethal effect / mortality” value is reported as “significant lethal effect; also recorded: high mortality rates” and the “Efficacy at 1.0 mg/L (%)” value amounted to 100.0%. For the same compound, the “EC50 (nM)” value in experiment [2] (setting [4]) is given as “No effect”. The “type of effect on the receptor (agonist / partial-agonist / super-agonist / no effect)” value in experiment [2] (1:1 (α:β) ratio) was “no effect; also recorded: did not affect; also recorded: did not demonstrate any ex-vivo effect”. Besides, in experiment [3], the EC50 is 69 nM and the Emax came out at 31.8%. The “agonist screening” value in experiment [3] (1:1 (α:β) ratio) was “agonists”.
Turning to `CN1CCC[C@H]1c1cccnc1` [Nicotine], the concentration giving a half-maximal response (EC50) in experiment [2] (setting [5]) was 9980 nM; in experiment [2] (setting [6]) it was 9980 nM; in experiment [3] (setting [5]), 3950 nM; in experiment [3] (setting [6]), 3950 nM. Besides, the “type of effect on the receptor (agonist / partial-agonist / super-agonist / no effect)” value in experiment [2] (1:1 (α:β) ratio) is given as “partial-agonist”. For the same compound, in experiment [2] (1:1 (α:β) ratio), the “Max peak (% Ach)” value is 16.1%. In experiment [3] (1:1 (α:β) ratio), the “type … (agonist / partial-agonist / no effect)” value is reported as “partial-agonist”. For the same compound, the Emax in experiment [3] was determined as 27.9%.
For the compound `CCN(Cc1ccc(Cl)nc1)/C(=C/[N+](=O)[O-])NC` [Nitenpyram], in experiment [1], the “Efficacy at 1.0 mg/L (%)” value is on record as 17.7%. Also, a half-maximal effect in experiment [2] (EC50) was put at 381 nM. Besides, in experiment [2] (1:1 (α:β) ratio), the “agonist screening” value is “agonists”; the “type of effect on the receptor (agonist / partial-agonist / super-agonist / no effect)” value is “partial-agonists”; the “Max peak (% Ach)” value came out at 70.1%. In addition, in experiment [3], a half-maximal effect (EC50) was put at 45 nM and the Emax is 27.4%. Also, in experiment [3] (1:1 (α:β) ratio), the “agonist screening” value is given as “agonists”; the “type … (agonist / partial-agonist / no effect)” value is listed as “partial-agonists”.
Consider `N#C/N=C1\SCCN1Cc1ccc(Cl)nc1` [Thiacloprid], for which, in experiment [1], the “lethal effect / mortality” value is reported as “significant lethal effect; also recorded: high mortality rates” and the “Efficacy at 1.0 mg/L (%)” value was found to be 100.0%. In addition, in experiment [2] (1:1 (α:β) ratio), the “agonist screening” value is given as “agonists”; the “type of effect on the receptor (agonist / partial-agonist / super-agonist / no effect)” value is given as “did not show any effect”. Further, the “EC50 (nM)” value in experiment [2] (setting [4]) was “No effect”. For the same compound, in experiment [2] (1:1 (α:β) ratio, listed as thiacloprid), the “type of effect on the receptor (agonist / partial-agonist / super-agonist / no effect)” value was “did not affect; also recorded: did not demonstrate any ex-vivo effect”. Further, in experiment [3] (1:1 (α:β) ratio), the “agonist screening” value is on record as “agonists”; the “type … (agonist / partial-agonist / no effect)” value is “partial-agonist”. The EC50 in experiment [3] (setting [5]) stood at 12 nM. The Emax in experiment [3] is 6.1%.
With `CN1COCN(Cc2cnc(Cl)s2)/C1=N\[N+](=O)[O-]` [Thiamethoxam], the “Efficacy at 1.0 mg/L (%)” value in experiment [1] was found to be 0.0%. Also, the “EC50 (nM)” value in experiment [2] (setting [4]) and in experiment [3] (setting [4]) was “No effect” each time.
Turning to `OCCCCC#Cc1cncc(OC[C@@H]2CCN2)c1` [sazetidine A, Sazetidine A], the “inward current on average” value is recorded as 0.50 μA in experiment [2] (10 μM sazetidine A, α:β = 10:1, n = 3 (assignment uncertain)); 0.22 μA in experiment [3] (α:β = 1:10, n = 3); 0.24 μA in experiment [3] (α:β = 10:1, n = 3). In addition, the “responsiveness to sazetidine A” value in experiment [2] (10 μM, α:β = 10:1) is reported as “responsive”.
As for Emamectin, the “EC50 (nM)” value in experiment [2] (setting [4]) and in experiment [3] (setting [4]) was “No effect” throughout.

The record behind these values is publication PMC7419010 (PLoS Pathogens, 2020).
